Reference: PubChem BioAssay AID2060487 (Molecular Pharmacology Branch, DTP, NCI, 2025)

System: 997537-175-T-J1-PDC complex spheroid viability
Assay: Anticancer human tumor 997537-175-T-J1-PDC patient-derived colon adenocarcinoma cell line growth inhibition [GQUAD]
Settings: for IC50: curve of first compound; for viability, T/C: stronger effect = lower value
Outline: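 Tumor cells were grown as complex spheroids with HUVEC endothelial cells and mesenchymal stem cells as stroma. G-quadruplex stabilizers were combined with targeted agents over half-log dilutions from near the clinical Cmax, or from 10 microM.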

[1] = second compound 0.0316 µM, first compound 0.0316 µM
[2] = second compound 0.0316 µM, first compound 0.1 µM
[3] = second compound 0.0316 µM, first compound 0.316 µM
[4] = second compound 0.0316 µM, first compound 1 µM
[5] = second compound 0.0316 µM, first compound 3.16 µM
[6] = second compound 0.0316 µM, first compound 10 µM
[7] = second compound 0.1 µM, first compound 0.0316 µM
[8] = second compound 0.1 µM, first compound 0.1 µM
[9] = second compound 0.1 µM, first compound 0.316 µM
[10] = second compound 0.1 µM, first compound 1 µM
[11] = second compound 0.1 µM, first compound 3.16 µM
[12] = second compound 0.1 µM, first compound 10 µM
[13] = second compound 0.316 µM, first compound 0.0316 µM
[14] = second compound 0.316 µM, first compound 0.1 µM
[15] = second compound 0.316 µM, first compound 0.316 µM
[16] = second compound 0.316 µM, first compound 1 µM
[17] = second compound 0.316 µM, first compound 3.16 µM
[18] = second compound 0.316 µM, first compound 10 µM
[19] = second compound 1 µM, first compound 0.0316 µM
[20] = second compound 1 µM, first compound 0.1 µM
[21] = second compound 1 µM, first compound 0.316 µM
[22] = second compound 1 µM, first compound 1 µM
[23] = second compound 1 µM, first compound 3.16 µM
[24] = second compound 1 µM, first compound 10 µM
[25] = second compound 3.16 µM, first compound 0.0316 µM
[26] = second compound 3.16 µM, first compound 0.1 µM
[27] = second compound 3.16 µM, first compound 0.316 µM
[28] = second compound 3.16 µM, first compound 1 µM
[29] = second compound 3.16 µM, first compound 3.16 µM
[30] = second compound 3.16 µM, first compound 10 µM
[31] = second compound 10 µM, first compound 0.0316 µM
[32] = second compound 10 µM, first compound 0.1 µM
[33] = second compound 10 µM, first compound 0.316 µM
[34] = second compound 10 µM, first compound 1 µM
[35] = second compound 10 µM, first compound 3.16 µM
[36] = second compound 10 µM, first compound 10 µM
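Further: spheroids exposed to the agents for 7 days.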
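Wherever viability, T/C is given: 100% = DMSO vehicle control viability.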

Work on `COc1ccc([C@@H](O)c2cc(-c3ncnc4cc(N5CCOCC5)ccc34)c(F)cc2Cl)nn1` + CN(C)c1ccc(Nc2c3ccc(NC(=O)CCN4CCCC4)cc3nc3cc(NC(=O)CCN4CCCC4)ccc23)cc1 yielded an IC50 (second compound 0.0316 µM) greater than 10 µM, an IC50 (second compound 0.1 µM) greater than 10 µM and an IC50 (second compound 0.316 µM) greater than 10 µM. It also gave an IC50 (second compound 1 µM) greater than 10 µM, an IC50 (second compound 3.16 µM) greater than 10 µM and an IC50 (second compound 10 µM) greater than 10 µM. It also gave a viability, T/C [1] of 90.2%, a viability, T/C [2] of 77.6% and a viability, T/C [3] of 102%. For the same molecule, the viability, T/C [4] was 75%, the viability, T/C [5] was 72.4% and the viability, T/C [6] was 90%. It also gave a viability, T/C [7] of 97%, a viability, T/C [8] of 90.7% and a viability, T/C [9] of 78.9%. For the same molecule, the viability, T/C [10] was 68.4%, the viability, T/C [11] was 78% and the viability, T/C [12] was 96.9%. For the same molecule, the viability, T/C [13] was 85.9%, the viability, T/C [14] was 65.8% and the viability, T/C [15] was 90.1%. The viability, T/C [16] was 60.3%, the viability, T/C [17] was 81.9% and the viability, T/C [18] was 84.9%. For the same molecule, the viability, T/C [19] was 77.8%, the viability, T/C [20] was 82.5% and the viability, T/C [21] was 86.6%. It also gave a viability, T/C [22] of 67.1%, a viability, T/C [23] of 100% and a viability, T/C [24] of 95.2%. It also gave a viability, T/C [25] of 84%, a viability, T/C [26] of 64.4% and a viability, T/C [27] of 93.8%. The viability, T/C [28] was 86.1%, the viability, T/C [29] was 108% and the viability, T/C [30] was 76.3%. It also gave a viability, T/C [31] of 82.9%, a viability, T/C [32] of 86.2% and a viability, T/C [33] of 93%. The viability, T/C [34] was 84.7%, the viability, T/C [35] was 95.2% and the viability, T/C [36] was 74.1%.

In the case of `COc1ncnc(C2CC2)c1-c1ncc2cnn(Cc3ccc(-c4nc(C(F)(F)F)cn4C(C)C)cc3)c2n1` + Cc1cnc(CNC(=O)c2c(=O)c3ccc(N4CCCN(C)CC4)nc3n3c2sc2ccccc23)cn1, the IC50 (second compound 0.0316 µM) is reported as greater than 10 µM, the IC50 (second compound 0.1 µM) is reported as greater than 10 µM and the IC50 (second compound 0.316 µM) is reported as greater than 10 µM. For the same molecule, the IC50 (second compound 1 µM) was greater than 10 µM, the IC50 (second compound 3.16 µM) was greater than 10 µM and the IC50 (second compound 10 µM) was greater than 10 µM. For the same molecule, the viability, T/C [1] was 118%, the viability, T/C [2] was 78.4% and the viability, T/C [3] was 102%. The viability, T/C [4] was 66.6%, the viability, T/C [5] was 55.3% and the viability, T/C [6] was 96.1%. For the same molecule, the viability, T/C [7] was 95.3%, the viability, T/C [8] was 69% and the viability, T/C [9] was 88.5%. The viability, T/C [10] was 92.5%, the viability, T/C [11] was 85% and the viability, T/C [12] was 94.5%. The viability, T/C [13] was 89.1%, the viability, T/C [14] was 86.2% and the viability, T/C [15] was 89.5%. It also gave a viability, T/C [16] of 88.5%, a viability, T/C [17] of 91.3% and a viability, T/C [18] of 92.7%. It also gave a viability, T/C [19] of 73.8%, a viability, T/C [20] of 85.1% and a viability, T/C [21] of 100%. It also gave a viability, T/C [22] of 101%, a viability, T/C [23] of 121% and a viability, T/C [24] of 97.5%. It also gave a viability, T/C [25] of 56%, a viability, T/C [26] of 107% and a viability, T/C [27] of 104%. The viability, T/C [28] was 84.7%, the viability, T/C [29] was 106% and the viability, T/C [30] was 97.4%. The viability, T/C [31] was 75.3%, the viability, T/C [32] was 109% and the viability, T/C [33] was 101%. The viability, T/C [34] was 92%, the viability, T/C [35] was 102% and the viability, T/C [36] was 116%.

With `C=CCn1c(=O)c2cnc(Nc3ccc(N4CCN(C)CC4)cc3)nc2n1-c1cccc(C(C)(C)O)n1` + Cc1cnc(CNC(=O)c2c(=O)c3ccc(N4CCCN(C)CC4)nc3n3c2sc2ccccc23)cn1 the IC50 (second compound 0.0316 µM) was 1.87 µM, the IC50 (second compound 0.1 µM) was 2.73 µM and the IC50 (second compound 0.316 µM) was 2.55 µM. The IC50 (second compound 1 µM) was 7.65 µM, the IC50 (second compound 3.16 µM) was greater than 10 µM and the IC50 (second compound 10 µM) was 8.48 µM. The viability, T/C [1] was 105%, the viability, T/C [2] was 76.5% and the viability, T/C [3] was 99%. For the same molecule, the viability, T/C [4] was 70.5%, the viability, T/C [5] was 32.8% and the viability, T/C [6] was 20.4%. It also gave a viability, T/C [7] of 105%, a viability, T/C [8] of 104% and a viability, T/C [9] of 98.3%. The viability, T/C [10] was 71.2%, the viability, T/C [11] was 48.6% and the viability, T/C [12] was 30.4%. It also gave a viability, T/C [13] of 89%, a viability, T/C [14] of 94.2% and a viability, T/C [15] of 91.3%. For the same molecule, the viability, T/C [16] was 74%, the viability, T/C [17] was 44.8% and the viability, T/C [18] was 38.1%. It also gave a viability, T/C [19] of 80.5%, a viability, T/C [20] of 99.8% and a viability, T/C [21] of 112%. For the same molecule, the viability, T/C [22] was 61.1%, the viability, T/C [23] was 76% and the viability, T/C [24] was 43.2%. It also gave a viability, T/C [25] of 63.1%, a viability, T/C [26] of 98.4% and a viability, T/C [27] of 96%. It also gave a viability, T/C [28] of 107%, a viability, T/C [29] of 75.2% and a viability, T/C [30] of 50.6%. It also gave a viability, T/C [31] of 73.8%, a viability, T/C [32] of 99.3% and a viability, T/C [33] of 87.2%. The viability, T/C [34] was 87%, the viability, T/C [35] was 79.8% and the viability, T/C [36] was 44.8%.

Work on `Cc1[nH]c2ccccc2c1CCNCc1ccc(/C=C/C(=O)NO)cc1` + Cc1[nH]c2ccc(F)cc2c1-c1nc2c3cccnc3c3ncccc3c2[nH]1 yielded an IC50 (second compound 0.0316 µM) greater than 0.316 µM, an IC50 (second compound 0.1 µM) greater than 0.316 µM and an IC50 (second compound 0.316 µM) greater than 0.316 µM. The IC50 (second compound 1 µM) was greater than 0.316 µM, the IC50 (second compound 3.16 µM) was greater than 0.316 µM and the IC50 (second compound 10 µM) was greater than 0.316 µM. It also gave a viability, T/C (second compound 0.0316 µM, first compound 0.000999 µM) of 100%, a viability, T/C (second compound 0.0316 µM, first compound 0.00316 µM) of 103% and a viability, T/C (second compound 0.0316 µM, first compound 0.00999 µM) of 100%. It also gave a viability, T/C [1] of 106%, a viability, T/C (second compound 0.0316 µM, first compound 0.0999 µM) of 88.8% and a viability, T/C [3] of 93.2%. It also gave a viability, T/C (second compound 0.1 µM, first compound 0.000999 µM) of 89.3%, a viability, T/C (second compound 0.1 µM, first compound 0.00316 µM) of 108% and a viability, T/C (second compound 0.1 µM, first compound 0.00999 µM) of 92.8%. For the same molecule, the viability, T/C [7] was 104%, the viability, T/C (second compound 0.1 µM, first compound 0.0999 µM) was 93.4% and the viability, T/C [9] was 95.5%. The viability, T/C (second compound 0.316 µM, first compound 0.000999 µM) was 92.1%, the viability, T/C (second compound 0.316 µM, first compound 0.00316 µM) was 111% and the viability, T/C (second compound 0.316 µM, first compound 0.00999 µM) was 92.4%. For the same molecule, the viability, T/C [13] was 91%, the viability, T/C (second compound 0.316 µM, first compound 0.0999 µM) was 105% and the viability, T/C [15] was 97.1%. It also gave a viability, T/C (second compound 1 µM, first compound 0.000999 µM) of 98.4%, a viability, T/C (second compound 1 µM, first compound 0.00316 µM) of 95.1% and a viability, T/C (second compound 1 µM, first compound 0.00999 µM) of 101%. For the same molecule, the viability, T/C [19] was 90.6%, the viability, T/C (second compound 1 µM, first compound 0.0999 µM) was 90.5% and the viability, T/C [21] was 84.8%. It also gave a viability, T/C (second compound 3.16 µM, first compound 0.000999 µM) of 93.2%, a viability, T/C (second compound 3.16 µM, first compound 0.00316 µM) of 84% and a viability, T/C (second compound 3.16 µM, first compound 0.00999 µM) of 82.1%. For the same molecule, the viability, T/C [25] was 96.3%, the viability, T/C (second compound 3.16 µM, first compound 0.0999 µM) was 77.6% and the viability, T/C [27] was 80.7%. The viability, T/C (second compound 10 µM, first compound 0.000999 µM) was 83.2%, the viability, T/C (second compound 10 µM, first compound 0.00316 µM) was 88.7% and the viability, T/C (second compound 10 µM, first compound 0.00999 µM) was 73.2%. The viability, T/C [31] was 78.6%, the viability, T/C (second compound 10 µM, first compound 0.0999 µM) was 84.6% and the viability, T/C [33] was 69.5%.
